Laboratory results from PubChem BioAssay AID1745844 (Carcinogenic Potency Database (CPDB), 2022).
Calls of active or inactive are those of the source. The rule behind the calls is not given here.

System: rodent lifetime carcinogenesis bioassay, tumor incidence TD50
Assay: chronic cancer bioassays in animals – CPDB, compiled studies (AID 1745844)

## CCn1cc(C(=O)O)c(=O)c2ccc(C)nc21
mouse, strain B6C3F1, females, in feed, site: adrenal medulla, lesion: pheochromocytoma, dosed 103 weeks, study length 104 weeks
  TD50: 3630 mg/kg/day (inactive)
mouse, strain B6C3F1, females, in feed, site: any site (literature study), lesion: several types, types named in the paper, dosed 103 weeks, study length 104 weeks
  TD50: 1690 mg/kg/day
mouse, strain B6C3F1, females, in feed, site: liver, lesion: hepatocellular adenoma + hepatocellular carcinoma + neoplastic nodule, dosed 103 weeks, study length 104 weeks
  TD50: 3160 mg/kg/day
mouse, strain B6C3F1, females, in feed, site: lung, lesion: alveolar/bronchiolar adenoma + alveolar/bronchiolar carcinoma, dosed 103 weeks, study length 104 weeks
  TD50: 4900 mg/kg/day
mouse, strain B6C3F1, males, in feed, site: any site (literature study), lesion: several types, types named in the paper, dosed 103 weeks, study length 104 weeks
  TD50: 1330 mg/kg/day
mouse, strain B6C3F1, males, in feed, site: lung, lesion: alveolar/bronchiolar adenoma + alveolar/bronchiolar carcinoma, dosed 103 weeks, study length 104 weeks
  TD50: 4600 mg/kg/day
mouse, strain B6C3F1, males, in feed, site: subcutaneous tissue, lesion: fibrosarcoma + fibroma, dosed 103 weeks, study length 104 weeks
  TD50: 1210 mg/kg/day
mouse, strain CDF1, females, in feed, site: any site (literature study), lesion: one or several types, types not named, dosed 76 weeks, study length 85 weeks
  carcinogen call: negative (inactive)
mouse, strain CDF1, females, in feed, site: liver, lesion: hepatocellular adenoma, dosed 76 weeks, study length 85 weeks
  TD50: 6450 mg/kg/day (inactive)
mouse, strain CDF1, females, in feed, site: lung, lesion: adenocarcinoma, dosed 76 weeks, study length 85 weeks
  TD50: 1770 mg/kg/day (inactive)
mouse, strain CDF1, females, in feed, site: lung, lesion: several types, types named in the paper, dosed 76 weeks, study length 85 weeks
  carcinogen call: negative (inactive)
mouse, strain CDF1, males, in feed, site: any site (literature study), lesion: one or several types, types not named, dosed 76 weeks, study length 85 weeks
  carcinogen call: negative (inactive)
mouse, strain CDF1, males, in feed, site: liver, lesion: hepatocellular adenoma, dosed 76 weeks, study length 85 weeks
  carcinogen call: negative (inactive)
mouse, strain CDF1, males, in feed, site: liver, lesion: hepatocellular carcinoma, dosed 76 weeks, study length 85 weeks
  TD50: 1940 mg/kg/day (inactive)
mouse, strain CDF1, males, in feed, site: liver, lesion: several types, types named in the paper, dosed 76 weeks, study length 85 weeks
  TD50: 3100 mg/kg/day (inactive)
mouse, strain CDF1, males, in feed, site: lung, lesion: adenocarcinoma, dosed 76 weeks, study length 85 weeks
  TD50: 3980 mg/kg/day (inactive)
mouse, strain CDF1, males, in feed, site: lung, lesion: several types, types named in the paper, dosed 76 weeks, study length 85 weeks
  carcinogen call: negative (inactive)
rat, strain Fischer 344, females, in feed, site: clitoral gland, lesion: adenoma, NOS + carcinoma, NOS + papillary carcinoma + papilloma, NOS, dosed 103 weeks, study length 104 weeks
  TD50: 372 mg/kg/day
rat, strain Fischer 344, males, in feed, site: any site (literature study), lesion: several types, types named in the paper, dosed 103 weeks, study length 104 weeks
  TD50: 7600 mg/kg/day
rat, strain Fischer 344, males, in feed, site: preputial gland, lesion: adenoma, NOS + carcinoma, NOS + papilloma, NOS, dosed 103 weeks, study length 104 weeks
  TD50: 138 mg/kg/day
rat, strain Fischer 344, males, in feed, site: preputial gland, lesion: adenoma, NOS + papilloma, NOS, dosed 103 weeks, study length 104 weeks
  TD50: 358 mg/kg/day
rat, strain Fischer 344, males, in feed, site: preputial gland, lesion: adenoma, NOS, dosed 103 weeks, study length 104 weeks
  TD50: 301 mg/kg/day
rat, strain Fischer 344, males, in feed, site: preputial gland, lesion: carcinoma, NOS, dosed 103 weeks, study length 104 weeks
  TD50: 211 mg/kg/day

## Clc1cccc(-c2cc(Cl)cc(Cl)c2)c1
rat, strain Sprague-Dawley, females, in feed, site: liver, lesion: hepatocellular adenoma, dosed 104 weeks, study length 104 weeks
  TD50: 59.3 mg/kg/day
rat, strain Sprague-Dawley, females, in feed, site: liver, lesion: hepatocellular carcinoma, dosed 104 weeks, study length 104 weeks
  TD50: 598 mg/kg/day
rat, strain Sprague-Dawley, females, in feed, site: liver, lesion: several types, types named in the paper, dosed 104 weeks, study length 104 weeks
  TD50: 53.9 mg/kg/day
rat, strain Sprague-Dawley, males, in feed, site: liver, lesion: several types, types named in the paper, dosed 104 weeks, study length 104 weeks
  TD50: 872 mg/kg/day

## NC(=O)c1ccccc1C(N)=O
mouse, strain B6C3F1, females, in feed, site: any site (literature study), lesion: several types, types named in the paper, dosed 103 weeks, study length 103 weeks
  carcinogen call: negative (inactive)
mouse, strain B6C3F1, males, in feed, site: any site (literature study), lesion: several types, types named in the paper, dosed 105 weeks, study length 105 weeks
  TD50: 1.1e+06 mg/kg/day (inactive)
mouse, strain B6C3F1, males, in feed, site: lung, lesion: alveolar/bronchiolar adenoma + alveolar/bronchiolar carcinoma, dosed 105 weeks, study length 105 weeks
  TD50: 35800 mg/kg/day
rat, strain Fischer 344, females, in feed, site: any site (literature study), lesion: several types, types named in the paper, dosed 106 weeks, study length 106 weeks
  TD50: 722 mg/kg/day (inactive)
rat, strain Fischer 344, females, in feed, site: liver, lesion: hepatocellular adenoma + hepatocellular carcinoma + neoplastic nodule, dosed 106 weeks, study length 106 weeks
  TD50: 5390 mg/kg/day
rat, strain Fischer 344, males, in feed, site: any site (literature study), lesion: several types, types named in the paper, dosed 106 weeks, study length 106 weeks
  carcinogen call: negative (inactive)
rat, strain Fischer 344, males, in feed, site: liver, lesion: hepatocellular adenoma + hepatocellular carcinoma + neoplastic nodule, dosed 106 weeks, study length 106 weeks
  TD50: 16600 mg/kg/day

## C#C[C@]1(OC(C)=O)CC[C@H]2[C@@H]3CCC4=C[C@@H](OC(C)=O)CC[C@@H]4[C@H]3CC[C@@]21C
rat, strain Wistary/NIN, females, by gavage, site: liver, lesion: one or several types, types not named, dosed 60 weeks, study length 60 weeks
  carcinogen call: negative (inactive)
